This is an account of results in paper PMC4331664, “Allosteric regulation of the partitioning of glucose-1-phosphate between glycogen and trehalose biosynthesis in Mycobacterium tuberculosis” (Biochimica et Biophysica Acta. General Subjects, 2015).

The target in series [1] is T1, ADP-Glc PPase (ADP-glucose pyrophosphorylase) (Mycobacterium tuberculosis, UniProt P9WN43).
T1 construct: gene glgC
The series is described as follows: biochemical.

Series [2] has as its system Nc1ncnc2c1ncn2[C@@H]1O[C@H](COP(=O)(O)OP(=O)(O)O[C@H]2O[C@H](CO)[C@@H](O)[C@H](O)[C@H]2O)[C@@H](O)[C@H]1O. The series is described as follows: purified protein. The conditions noted are these: pH 8.0.
Series [3] has as its target T1, ADP-Glc PPase (ADP-glucose pyrophosphorylase). The conditions noted are these: read-out: A0.5.
The target is the same in series [4].
Series [5] deals with T2, Tre-6P Sase (trehalose-6-phosphate synthase) (Mycobacterium tuberculosis, UniProt P9WN11).
T2 construct: gene otsA
To be noted: read-out: A0.5.

Like-named read-outs stand apart in the source and are kept apart here.

T1 sequence (P9WN43 whole entry): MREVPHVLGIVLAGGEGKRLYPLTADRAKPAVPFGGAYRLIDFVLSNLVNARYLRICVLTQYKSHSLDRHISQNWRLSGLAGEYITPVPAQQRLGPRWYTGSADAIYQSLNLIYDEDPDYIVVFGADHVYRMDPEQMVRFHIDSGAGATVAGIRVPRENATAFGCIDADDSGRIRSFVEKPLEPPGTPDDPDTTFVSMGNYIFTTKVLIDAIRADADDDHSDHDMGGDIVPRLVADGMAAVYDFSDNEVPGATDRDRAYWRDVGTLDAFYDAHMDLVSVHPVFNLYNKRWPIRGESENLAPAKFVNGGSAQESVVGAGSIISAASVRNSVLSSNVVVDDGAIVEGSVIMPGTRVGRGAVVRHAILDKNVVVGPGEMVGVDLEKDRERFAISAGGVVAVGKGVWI
T2 sequence (P9WN11 whole entry): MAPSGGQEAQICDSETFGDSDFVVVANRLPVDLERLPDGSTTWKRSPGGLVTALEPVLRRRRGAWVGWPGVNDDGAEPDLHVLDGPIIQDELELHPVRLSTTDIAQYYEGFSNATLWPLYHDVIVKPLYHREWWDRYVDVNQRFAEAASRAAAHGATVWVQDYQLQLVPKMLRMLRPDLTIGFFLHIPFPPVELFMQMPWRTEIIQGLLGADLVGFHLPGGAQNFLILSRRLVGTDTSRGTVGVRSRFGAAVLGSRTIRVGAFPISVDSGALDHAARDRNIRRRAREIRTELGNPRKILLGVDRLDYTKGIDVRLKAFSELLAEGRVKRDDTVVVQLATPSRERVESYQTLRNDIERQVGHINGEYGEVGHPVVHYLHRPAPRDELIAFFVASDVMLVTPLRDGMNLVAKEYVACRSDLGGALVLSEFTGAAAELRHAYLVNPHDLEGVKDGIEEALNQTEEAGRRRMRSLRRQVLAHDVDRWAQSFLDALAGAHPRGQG

In series [1], `C=C(OP(=O)(O)O)C(=O)O` [PEP] returned an EC50 of 90 µM.

For “GSase (glycogen synthase) (Mycobacterium tuberculosis H37Rv)”, in series [2], the K0.5 is listed as 3.95 ± 0.12 mM and the Vmax (as a rule, the top rate of the reaction or transport when substrate is in excess) is 0.21 µmol/min/mg.

With `O=P(O)(O)OC[C@H]1OC(O)[C@H](O)[C@@H](O)[C@@H]1O` (stereo partly drawn) [Glc-6P], the EC50 in series [3] came out at 870 µM.

On to `O=P(O)(O)OC[C@H]1OC(O)(CO)[C@@H](O)[C@@H]1O` (stereo partly drawn) [Fru-6P], for which the “fold activation at 5 mM” value in series [4] is listed as 1.3 fold. Moreover, the EC50 in series [5] worked out at 330 µM.
